Source: patent publication US12247004B2, “2-amino-N-(amino-oxo-aryl-lambda6-sulfanylidene)acetamide compounds and their therapeutic use” (Oxford Drug Design Limited, priority 2019, dated 2025)
≈ marks a conversion by molar mass, not a printed value. Where two headings read alike, the source gives them in different places.

Experiments:
[1] = system: bacteria (ATCC reference strains); test: Antibacterial activity, MIC by broth micro-dilution (CLSI)
[2] = target: Leucyl-tRNA synthetase (LeuRS) (Escherichia coli (strain K12), UniProt P07813); test: Leucyl-tRNA synthetase enzyme inhibition (AMP-Glo; single point % inhibition at 100 μM and IC50); assay type: biochemical
Leucyl-tRNA synthetase (LeuRS), sequence (P07813 whole entry, looked up): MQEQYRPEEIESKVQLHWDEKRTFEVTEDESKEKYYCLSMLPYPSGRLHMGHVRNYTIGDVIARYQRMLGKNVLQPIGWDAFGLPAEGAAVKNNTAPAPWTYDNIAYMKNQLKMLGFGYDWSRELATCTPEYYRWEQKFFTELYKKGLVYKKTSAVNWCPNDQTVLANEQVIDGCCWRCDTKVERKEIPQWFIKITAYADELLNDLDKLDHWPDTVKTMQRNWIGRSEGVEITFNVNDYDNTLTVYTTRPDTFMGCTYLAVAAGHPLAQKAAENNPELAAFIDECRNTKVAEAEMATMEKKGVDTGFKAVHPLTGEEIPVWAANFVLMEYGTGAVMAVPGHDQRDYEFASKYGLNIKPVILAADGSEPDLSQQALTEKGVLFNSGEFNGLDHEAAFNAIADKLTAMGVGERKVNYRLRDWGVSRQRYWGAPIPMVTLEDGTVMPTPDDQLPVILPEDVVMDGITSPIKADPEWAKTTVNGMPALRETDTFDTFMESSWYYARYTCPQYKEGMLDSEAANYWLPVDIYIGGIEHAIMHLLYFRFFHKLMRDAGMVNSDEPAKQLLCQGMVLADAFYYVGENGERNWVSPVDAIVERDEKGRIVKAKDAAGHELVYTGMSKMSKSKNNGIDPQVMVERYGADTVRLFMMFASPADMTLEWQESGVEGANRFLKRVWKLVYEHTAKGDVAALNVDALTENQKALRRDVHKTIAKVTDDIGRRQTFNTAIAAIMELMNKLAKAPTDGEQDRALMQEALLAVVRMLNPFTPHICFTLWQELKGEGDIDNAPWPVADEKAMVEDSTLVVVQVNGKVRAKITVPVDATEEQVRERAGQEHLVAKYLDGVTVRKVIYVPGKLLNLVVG
Description: Study 1—Enzyme Inhibition
The aminoacylation reaction catalyzed by aminoacyl-tRNA synthetases (aaRS) takes place in two steps. In the first step, aaRS activates its cognate amino acid with ATP; and in the second step the activated amino acid is loaded to its corresponding tRNA. This reaction can be summarized as follows: aaRS+aa+ATP=aaRS-aa-AMP+PPi aaRS-aa-AMP+tRNA=aa-tRNA+AMP+aaRS
wherein: aaRS, aminoacyl-tRNA synthetase; aa, amino acid; aaRS-aa-AMP, enzyme-bound to aminoacyl-adenylate; AMP, adenosine monophosphate; aa-tRNA, aminoacyl-tRNA, PPi, inorganic pyrophosphate.
a. Single Point Percentage Inhibition
The activity of the pathogenic aaRSs was monitored by measuring AMP production using the commercial kit AMP-Glo (Promega, Madison, USA).
Ligand stock solutions were prepared in 100% DMSO at 10 mM concentration. An assay buffer consisting of 100 mM Tris HCl pH 7.6, 40 mM MgCl, 20 mM KCl and 150 mM NaCl was prepared in dH2O.
Using the same enzymatic assay in a 384-well plate format, ten point concentration response curves were generated for each compound using a top concentration of 10 μM. The known inhibitor LeuAMS was used as a positive control for the LeuRS assay. 100% DMSO was used as a negative control. The IC50 was calculated based on non-linear regression analysis.

[3] = Escherichia coli, ATCC25922, read-out: Antibacterial Activity (MIC), A = E. coli ATCC 25922
[4] = Escherichia coli, BAA2469, read-out: Antibacterial Activity (MIC), G = E. coli BAA-2469
[5] = Klebsiella pneumoniae, ATCC700603, read-out: Antibacterial Activity (MIC), C = K. pneumoniae ATCC 700603
[6] = E. coli LeuRS, read-out: Enzyme Inhibition - IC50, E. coli LeuRS
[7] = Haemophilus influenzae, ATCC49247, read-out: Antibacterial Activity (MIC), F = H. influenzae ATCC 49247
[8] = Acinetobacter baumannii, read-out: Antibacterial Activity (MIC), E = A. baumannii B1931
[9] = Enterobacter cloacae, read-out: Antibacterial Activity (MIC), B = Enterobacter cloacae B1966
[10] = Pseudomonas aeruginosa, ATCC27853, read-out: Antibacterial Activity (MIC), D = P. aeruginosa ATCC 27853

Structure (SMILES)	MIC [1, 3]	MIC [1, 4]	IC50 [2]	IC50 [2, 6]	further results
CC(=O)c1sccc1[S@@](N)(=O)=NC(=O)[C@@H](N)CC(C)C (single isomer, unassigned) [ANASIA-112-1]	32 µg/mL (≈ 101 µM)	64 µg/mL (≈ 202 µM)	0.294 µM		
CC(C)C[C@H](N)C(=O)N=S(N)(=O)c1csc(F)c1 (stereo partly drawn) [ANASIA-060]		16 µg/mL (≈ 54.5 µM)		0.227 µM	MIC [1, 5]: 32 µg/mL (≈ 109 µM)
CC(C)C[C@H](N)C(=O)N=[S@](N)(=O)c1cc(F)cs1 [ANASIA-062-1]		8 µg/mL (≈ 27.3 µM)	0.0475 µM		MIC [1, 5]: 32 µg/mL (≈ 109 µM)
CC(C)C[C@H](N)C(=O)N=S(N)(=O)c1cc(F)c(F)s1 (stereo partly drawn) [ANASIA-063]		64 µg/mL (≈ 206 µM)		0.223 µM	MIC [1, 5]: > 256 µg/mL
CCOc1cccc(S(N)(=O)=NC(=O)[C@@H](N)CC(C)C)c1 (stereo partly drawn) [ANASIA-066]	64 µg/mL (≈ 204 µM)	> 64 µg/mL		0.553 µM	
CC(C)C[C@H](N)C(=O)N=S(N)(=O)c1sccc1-c1ccccc1 (stereo partly drawn) [ANASIA-068]	32 µg/mL (≈ 91 µM)	> 64 µg/mL		0.141 µM	
CC(C)C[C@H](N)C(=O)N=S(N)(=O)c1sccc1F (stereo partly drawn) [ANASIA-070]		32 µg/mL (≈ 109 µM)		0.143 µM	MIC [1, 5]: 64 µg/mL (≈ 218 µM)
CC(C)C[C@H](N)C(=O)N=S(N)(=O)c1ccc(F)s1 (stereo partly drawn) [ANASIA-071]		8 µg/mL (≈ 27.3 µM)		0.173 µM	MIC [1, 5]: 32 µg/mL (≈ 109 µM)
CC(C)C[C@H](N)C(=O)N=S(N)(=O)c1ccsc1F (stereo partly drawn) [ANASIA-074]		16 µg/mL (≈ 54.5 µM)		0.0992 µM	MIC [1, 5]: 32 µg/mL (≈ 109 µM)
CC(C)C[C@H](N)C(=O)N=[S@](N)(=O)c1ccccn1.Cl [ANASIA-075-1]	32 µg/mL		0.42 µM		MIC [1, 7]: > 64 µg/mL
CC(C)C[C@H](N)C(=O)N=[S@](N)(=O)c1csc2ccccc12 [ANASIA-083-1]	32 µg/mL (≈ 98.3 µM)			0.157 µM	MIC [1, 7]: 32 µg/mL (≈ 98.3 µM)
CC(C)C[C@H](N)C(=O)N=[S@](N)(=O)c1cccc(C(F)(F)F)c1.Cl [ANASIA-089-1]	64 µg/mL		0.195 µM		MIC [1, 7]: 64 µg/mL
Cc1sccc1[S@@](N)(=O)=NC(=O)[C@@H](N)CC(C)C.Cl [ANASIA-091-1]	64 µg/mL	> 64 µg/mL	0.847 µM		
Cc1cscc1[S@@](N)(=O)=NC(=O)[C@@H](N)CC(C)C.Cl [ANASIA-094-1]	8 µg/mL	64 µg/mL	0.476 µM		MIC [1, 5]: 128 µg/mL
Cc1csc([S@@](N)(=O)=NC(=O)[C@@H](N)CC(C)C)c1.Cl [ANASIA-095-1]	0.794 µg/mL	2 µg/mL	0.029 µM		MIC [1, 8]: 8 µg/mL; MIC [1, 9]: 8 µg/mL; MIC [1, 5]: 10.1 µg/mL; MIC [1, 10]: 32 µg/mL
Cc1cc([S@@](N)(=O)=NC(=O)[C@@H](N)CC(C)C)cs1.Cl [ANASIA-098-1]	3.17 µg/mL	4 µg/mL	0.148 µM		MIC [1, 8]: 64 µg/mL; MIC [1, 9]: 16 µg/mL; MIC [1, 5]: 32 µg/mL; MIC [1, 10]: 64 µg/mL
CC(C)C[C@H](N)C(=O)N=[S@](N)(=O)c1csc(Cl)c1.Cl [ANASIA-099-1]	0.5 µg/mL	4 µg/mL	0.124 µM		MIC [1, 8]: 16 µg/mL; MIC [1, 9]: 4 µg/mL; MIC [1, 5]: 8 µg/mL; MIC [1, 10]: 64 µg/mL
CC(C)C[C@H](N)C(=O)N=[S@](N)(=O)c1csc2ccsc12.Cl [ANASIA-100-1]	1 µg/mL	5.66 µg/mL	0.0278 µM		MIC [1, 8]: 16 µg/mL; MIC [1, 9]: 16 µg/mL; MIC [1, 5]: 45.3 µg/mL; MIC [1, 10]: 64 µg/mL
CC(C)C[C@H](N)C(=O)N=[S@](N)(=O)c1ccc2c(c1)OCO2.Cl [ANASIA-101-1]	64 µg/mL		1.67 µM		
COc1cccc(S(N)(=O)=NC(=O)[C@@H](N)CC(C)C)c1 (stereo partly drawn) [ANASIA-102, (2S)-2-amino-N-(amino(3-methoxyphenyl)(oxo)-16-sulfaneylidene)-4-methylpentanamide]	16 µg/mL (≈ 53.4 µM)	> 64 µg/mL		0.385 µM	
CC(C)C[C@H](N)C(=O)N=[S@@](N)(=O)c1scc(F)c1F [ANASIA-103-2]	16 µg/mL (≈ 51.4 µM)			0.21 µM	
Cc1csc([S@@](N)(=O)=NC(=O)[C@@H](N)CC(C)C)c1C.Cl [ANASIA-104-1]	8 µg/mL	16 µg/mL	0.241 µM		MIC [1, 5]: 128 µg/mL
C=Cc1ccc([S@@](N)(=O)=NC(=O)[C@@H](N)CC(C)C)s1 [ANASIA-105-1, (S)-2-amino-N—((S)-amino(oxo)(5-vinylthiophen-2-yl)-λ6-sulfanylidene)-4-methylpentanamide]	32 µg/mL (≈ 106 µM)		0.489 µM		
CC(C)C[C@H](N)C(=O)N=[S@](N)(=O)c1scc(Br)c1Br.Cl [ANASIA-107-1]	32 µg/mL		0.106 µM		
COc1ccc([S@@](N)(=O)=NC(=O)[C@@H](N)CC(C)C)s1.Cl [ANASIA-109-1]	32 µg/mL	32 µg/mL	2.56 µM		
CC(C)C[C@H](N)C(=O)N=[S@](N)(=O)c1ccc(C(C)C)s1 [ANASIA-111-1]			0.779 µM		
CC(C)C[C@H](N)C(=O)N=S(N)(=O)c1ccccc1O (stereo partly drawn) [ANASIA-113, (2S)-2-amino-N-(amino(2-hydroxyphenyl)(oxo)-λ6-sulfanylidene)-4-methylpentanamide]	64 µg/mL (≈ 224 µM)			3.23 µM	

Structure (SMILES)	MIC [1, 3]	MIC [1, 4]	IC50 [2]	IC50 [2, 6]	further results
CC(C)C[C@H](N)C(=O)N=[S@](N)(=O)c1cccc(Oc2ccccc2)c1 [ANASIA-114-1]			0.0618 µM		
CC(C)C[C@H](N)C(=O)N=[S@@](N)(=O)c1cccc(Oc2ccccc2)c1 [ANASIA-114-2]				0.982 µM	
CCc1ccsc1[S@@](N)(=O)=NC(=O)[C@@H](N)CC(C)C.Cl [ANASIA-119-1]	4 µg/mL	8 µg/mL	0.0997 µM		MIC [1, 8]: 32 µg/mL; MIC [1, 9]: 32 µg/mL; MIC [1, 5]: 64 µg/mL; MIC [1, 10]: > 64 µg/mL
CCc1ccsc1[S@](N)(=O)=NC(=O)[C@@H](N)CC(C)C [ANASIA-119-2]				4.65 µM	
CC(C)C[C@H](N)C(=O)N=[S@](N)(=O)c1sc(Cl)cc1Cl.Cl [ANASIA-120-1]	32 µg/mL		0.293 µM		
CC(C)C[C@H](N)C(=O)N=[S@@](N)(=O)c1sc(Cl)cc1Cl [ANASIA-120-2]				7.6 µM	
CC(C)C[C@H](N)C(=O)N=[S@](N)(=O)c1cc(Cl)c(Cl)s1.Cl [ANASIA-121-1]	8 µg/mL	16 µg/mL	0.0417 µM		MIC [1, 5]: > 256 µg/mL
CC(C)C[C@H](N)C(=O)N=[S@@](N)(=O)c1cc(Cl)c(Cl)s1 [ANASIA-121-2]				1.1 µM	
Cc1c([S@@](N)(=O)=NC(=O)[C@@H](N)CC(C)C)csc1Cl.Cl [ANASIA-122-1]	32 µg/mL		0.167 µM		
Cc1c([S@](N)(=O)=NC(=O)[C@@H](N)CC(C)C)csc1Cl [ANASIA-122-2]				1.93 µM	
CC(C)C[C@H](N)C(=O)N=[S@@](N)(=O)c1cc(Cl)cs1 [ANASIA-124-2]				4.8 µM	
CC(C)C[C@H](N)C(=O)N=[S@@](N)(=O)c1csc(Cl)c1Cl [ANASIA-125-2]				1.93 µM	
CC(C)C[C@H](N)C(=O)N=[S@@](N)(=O)c1ccsc1C(F)F [ANASIA-126-2]				1.72 µM	
CC(C)C[C@H](N)C(=O)N=[S@](N)(=O)c1nc(C(F)F)cs1 [ANASIA-127-1]			6.89 µM		
CC(C)C[C@H](N)C(=O)N=[S@@](N)(=O)c1nc(C(F)F)cs1 [ANASIA-127-2]			0.192 µM		
Cc1nc([S@@](N)(=O)=NC(=O)[C@@H](N)CC(C)C)sc1C [ANASIA-128-1]			2.61 µM		
Cc1nc([S@](N)(=O)=NC(=O)[C@@H](N)CC(C)C)sc1C [ANASIA-128-2]				3.44 µM	
CC(C)C[C@H](N)C(=O)N=[S@](N)(=O)c1cscc1-c1ccccc1 [ANASIA-130-1]			0.324 µM		
CC(C)C[C@H](N)C(=O)N=[S@@](N)(=O)c1cscc1-c1ccccc1 [ANASIA-130-2]				3.7 µM	
CC(C)C[C@H](N)C(=O)N=[S@](N)(=O)c1nsc2ccccc12 [ANASIA-132-1]			4.14 µM		
CCc1csc([S@](N)(=O)=NC(=O)[C@@H](N)CC(C)C)c1 [ANASIA-133-2, (S)-2-amino-N—((R)-amino(4-ethylthiophen-2-yl)(oxo)-λ6-sulfanylidene)-4-methylpentanamide]			6.37 µM		
CC(C)C[C@H](N)C(=O)N=[S@](N)(=O)c1cc(Cl)sc1Cl [ANASIA-134-1]			5.15 µM		
CC(C)C[C@H](N)C(=O)N=[S@](N)(=O)c1csc(C#N)c1 [ANASIA-135-1]			5.07 µM		
CC(C)C[C@H](N)C(=O)N=[S@@](N)(=O)c1cc(C#N)cs1 [ANASIA-136-2]				1.41 µM	
Cc1ncc([S@@](N)(=O)=NC(=O)[C@@H](N)CC(C)C)s1 [ANASIA-137-1]			2.67 µM		
Cc1ncc([S@](N)(=O)=NC(=O)[C@@H](N)CC(C)C)s1 [ANASIA-137-2]				8.89 µM	
